From patent US6838414B2, “Substituted aryl sulphonyl(thio)ureas used as herbicides” (Bayer Aktiengesellschaft, priority 1996, dated 2005)

What was measured:
Format in all cases: in vivo
[1] = system: Amaranthus; test: Pre-emergence test/greenhouse; details: after three weeks
Procedure: (§1) To produce a suitable preparation of active compound, 1 part by weight of active compound is mixed with the stated amount of solvent, the stated amount of emulsifier is added and the concentrate is diluted with water to the desired concentration.
(§2) Seeds of the test plants are sown in normal soil. After about 24 hours, the soil is sprayed with the preparation of the active compound. Advantageously, the amount of water per unit area is kept constant. The active compound concentration in the preparation is not important, only the active compound application rate per unit area is critical.
(§3) After three weeks, the degree of damage to the plants is rated in % damage in comparison with the development of the untreated control.
(§4) The figures denote: • 0%=no effect (like untreated control) • 100%=total destruction

[2] = system: Stellaria; test: Pre-emergence test/greenhouse; details: after three weeks
Procedure: as §1, §2, §3, §4

[3] = system: Alopecurus; test: Pre-emergence test/greenhouse; details: after three weeks
Procedure: as §1, §2, §3, §4

[4] = system: Chenopodium; test: Pre-emergence test/greenhouse; details: after three weeks
Procedure: as §1, §2, §3, §4

[5] = system: Lolium; test: Pre-emergence test/greenhouse; details: after three weeks
Procedure: as §1, §2, §3, §4

[6] = system: Sorghum; test: Pre-emergence test/greenhouse; details: after three weeks
Procedure: as §1, §2, §3, §4

[7] = system: Echinochloa; test: Post-emergence test/greenhouse; details: rated after three weeks vs untreated control
Procedure: as §1
(§5) Test plants which have a height of 5-15 cm are sprayed with the preparation of the active compound in such a way as to apply the particular amounts of active compound desired per unit area. The concentration of the spray liquor is chosen so that the amounts of active compound desired in each case are applied in 1000 l of water/ha.
as §3, §4

[8] = system: Alopecurus; test: Post-emergence test/greenhouse; details: rated after three weeks vs untreated control
Procedure: as §1, §5, §3, §4

[9] = system: Matricaria; test: Post-emergence test/greenhouse; details: rated after three weeks vs untreated control
Procedure: as §1, §5, §3, §4

[10] = system: weeds; test: Post-emergence test/greenhouse
Procedure: as §1, §5, §3, §4

[11] = system: Abutilon; test: Post-emergence test/greenhouse; details: rated after three weeks vs untreated control
Procedure: as §1, §5, §3, §4

[12] = system: weeds; test: Pre-emergence test (overall statement); details: application rates between 30 g and 125 g of a.i. per hectare
Procedure: as §1, §2, §3, §4

[13] = application rate 30 g of ai./ha
[14] = application rate 60 g of ai./ha

| Structure (SMILES) | Amaranthus, % damage ([1]; 60 g of ai./ha) [%] | Steltaria, % damage ([2]; 60 g of ai./ha) [%] | Alopecurus, % damage ([3]; 60 g of ai./ha) [%] | Chenopodium, % damage ([4]; 60 g of ai./ha) [%] | Lolium, % damage ([5]; 60 g of ai./ha) [%] | Sorghum, % damage ([6]; 60 g of ai./ha) [%] | degree of damage to the plants, Echinochloa [7, 13] [%] | degree of damage to the plants, Alopecurus [8, 13] [%] | degree of damage to the plants, Matricaria [9, 13] [%] | activity against weeds [10] | degree of damage to the plants, Abutilon [11, 13] [%] | activity against weeds [12] | Amaranthus, % damage ([1]; 30 g of ai./ha) [%] | Steltaria, % damage ([2]; 30 g of ai./ha) [%] | Alopecurus, % damage ([3]; 30 g of ai./ha) [%] | Chenopodium, % damage ([4]; 30 g of ai./ha) [%] | Lolium, % damage ([5]; 30 g of ai./ha) [%] | Sorghum, % damage ([6]; 30 g of ai./ha) [%] | degree of damage to the plants, Echinochloa [7, 14] [%] | degree of damage to the plants, Alopecurus [8, 14] [%] | other results |
| --- | --- | --- | --- | --- | --- | --- | --- | --- | --- | --- | --- | --- | --- | --- | --- | --- | --- | --- | --- | --- | --- |
| CCOc1cccc(C(F)(F)F)c1S(=O)(=O)NC(=O)Nc1nc(OC)nc(OC)n1 [Example 7] | 95 | 95 | 100 | 100 | 95 | 100 | 95 | 95 | 100 | very strong activity against weeds | 95 | very strong activity against weeds |  |  |  |  |  |  |  |  |  |
| CCCOc1cccc(C(F)(F)F)c1S(=O)(=O)NC(=O)Nc1nc(C)nc(OC)n1 [Example 9] |  |  |  |  |  |  |  |  |  | very strong activity against weeds |  | very strong activity against weeds | 100 | 100 | 100 | 100 | 100 | 90 |  |  | degree of damage to the plants, Echinochloa ([7]; application rate 8 g of ai./ha): 80%; degree of damage to the plants, Alopecurus ([8]; application rate 8 g of ai./ha): 90%; degree of damage to the plants, Matricaria ([9]; application rate 8 g of ai./ha): 95%; degree of damage to the plants, Abutilon ([11]; application rate 8 g of ai./ha): 100% |
| COc1nc(C)nc(NC(=O)NS(=O)(=O)c2c(OC(C)C)cccc2C(F)(F)F)n1 [Example 12] |  |  |  |  |  |  | 90 | 95 | 100 | very strong activity against weeds | 95 | very strong activity against weeds | 100 | 100 | 100 | 95 | 100 | 100 |  |  |  |
| COc1cc(Cl)nc(NC(=O)NS(=O)(=O)c2c(OC)cccc2C(F)(F)F)n1 [Example 15] | 95 | 95 | 100 | 100 | 95 | 95 |  |  |  | very strong activity against weeds |  | very strong activity against weeds |  |  |  |  |  |  | 90 | 70 | degree of damage to the plants, Matricaria [9, 14]: 100%; degree of damage to the plants, Abutilon [11, 14]: 95% |
| CCOc1cccc(C)c1S(=O)(=O)NC(=O)Nc1nc(C)cc(OC)n1 [Example 27] | 100 | 100 | 100 | 100 | 100 | 100 |  |  |  | very strong activity against weeds |  | very strong activity against weeds |  |  |  |  |  |  | 95 | 95 | degree of damage to the plants, Matricaria [9, 14]: 90%; degree of damage to the plants, Abutilon [11, 14]: 100% |
| CCOc1cccc(C)c1S(=O)(=O)NC(=O)Nc1nc(OC)nc(OC)n1 [Example 31] | 95 | 95 | 95 | 100 | 100 | 90 |  |  |  | very strong activity against weeds |  | very strong activity against weeds |  |  |  |  |  |  | 80 | 80 | degree of damage to the plants, Matricaria [9, 14]: 100%; degree of damage to the plants, Abutilon [11, 14]: 100% |
| CCOc1cccc(C)c1S(=O)(=O)NC(=O)Nc1nc(C)nc(OC)n1 [Example 32] | 100 | 100 | 95 | 100 | 100 | 95 |  |  |  | very strong activity against weeds |  | very strong activity against weeds |  |  |  |  |  |  | 90 | 70 | degree of damage to the plants, Matricaria [9, 14]: 100%; degree of damage to the plants, Abutilon [11, 14]: 100% |
| COc1nc(NC(=O)NS(=O)(=O)c2c(C)cccc2OC(C)C)nc(OC)n1 [Example 38] |  |  |  |  |  |  | 70 | 60 | 95 | very strong activity against weeds | 95 | very strong activity against weeds | 80 | 100 | 100 | 100 | 100 | 100 |  |  |  |
| COc1nc(NC(=O)NS(=O)(=O)c2c(C)cccc2OC(C)C)nc(OC)n1 [Example 39] |  |  |  |  |  |  | 95 | 90 | 100 | very strong activity against weeds | 100 | very strong activity against weeds | 100 | 100 | 100 | 100 | 100 | 100 |  |  |  |
| COc1nc(C)nc(NC(=O)NS(=O)(=O)c2c(C)cccc2OC)n1 [Example 40] |  |  |  |  |  |  | 95 | 100 | 100 | very strong activity against weeds | 95 | very strong activity against weeds | 100 | 100 | 100 | 100 | 100 | 100 |  |  |  |
| COc1cccc(C)c1S(=O)(=O)NC(=O)Nc1nc(C)cc(C)n1 [Example 41] |  |  |  |  |  |  | 95 | 60 | 70 | very strong activity against weeds | 90 | very strong activity against weeds | 60 | 80 | 95 | 100 | 100 | 100 |  |  |  |
| COc1cc(C)nc(NC(=O)NS(=O)(=O)c2c(C)cccc2OC)n1 [Example 43] |  |  |  |  |  |  | 95 | 60 | 100 | very strong activity against weeds | 100 | very strong activity against weeds | 100 | 100 | 100 | 100 | 100 | 100 |  |  |  |
| COc1cc(OC)nc(NC(=O)NS(=O)(=O)c2c(C)cccc2OC)n1 [Example 44] |  |  |  |  |  |  | 90 | 60 | 100 | very strong activity against weeds | 100 | very strong activity against weeds | 100 | 100 | 100 | 100 | 100 | 100 |  |  |  |
| CCCOc1cccc(C)c1S(=O)(=O)NC(=O)Nc1nc(OC)nc(OC)n1 [Example 48] | 100 | 100 | 100 | 100 | 100 | 100 |  |  |  | very strong activity against weeds |  | very strong activity against weeds |  |  |  |  |  |  | 70 | 95 | degree of damage to the plants, Matricaria [9, 14]: 90%; degree of damage to the plants, Abutilon [11, 14]: 100% |
| CCCOc1cccc(C)c1S(=O)(=O)NC(=O)Nc1nc(C)nc(OC)n1 [Example 49] |  |  |  |  |  |  | 80 | 90 | 100 | very strong activity against weeds | 100 | very strong activity against weeds | 100 | 100 | 100 | 100 | 100 | 100 |  |  |  |
